Measurements published in the supplement of paper PMC10307832.

Experiments:
Test in all cases: relative viability (nuclei count vs DMSO), 5 days (fraction); higher = more cells survive
201T = system: 201T
Summary of the method: (§1)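 Relative viability equals treated-well nuclei counts divided by vehicle-well nuclei counts. Counts came from 4× images of lung cancer cell lines grown in 1536-well plates for 5 days after pin-tool dosing on the day after seeding. Dosing used one drug alone or a fixed anchor-drug dose plus five library-drug doses (not always all listed) in √10 steps, and values are medians of duplicate plates.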

BEN = system: BEN
Summary of the method: as §1

CAL-12T = system: CAL-12T
Summary of the method: as §1

HCC-827 = system: HCC-827
Summary of the method: as §1

LCLC-103H = system: LCLC-103H
Summary of the method: as §1

LCLC-97TM1 = system: LCLC-97TM1
Summary of the method: as §1

LXF-289 = system: LXF-289
Summary of the method: as §1

NCI-H1395 = system: NCI-H1395
Summary of the method: as §1

NCI-H1437 = system: NCI-H1437
Summary of the method: as §1

NCI-H1650 = system: NCI-H1650
Summary of the method: as §1

NCI-H1792 = system: NCI-H1792
Summary of the method: as §1

NCI-H1793 = system: NCI-H1793
Summary of the method: as §1

NCI-H1944 = system: NCI-H1944
Summary of the method: as §1

NCI-H2087 = system: NCI-H2087
Summary of the method: as §1

NCI-H2228 = system: NCI-H2228
Summary of the method: as §1

NCI-H2405 = system: NCI-H2405
Summary of the method: as §1

NCI-H3122 = system: NCI-H3122
Summary of the method: as §1

NCI-H322M = system: NCI-H322M
Summary of the method: as §1

NCI-H647 = system: NCI-H647
Summary of the method: as §1

NCI-H727 = system: NCI-H727
Summary of the method: as §1

RERF-LC-KJ = system: RERF-LC-KJ
Summary of the method: as §1

SK-LU-1 = system: SK-LU-1
Summary of the method: as §1

`Cc1sc2c(c1C)C(c1ccc(Cl)cc1)=N[C@@H](CC(=O)OC(C)(C)C)c1nnc(C)n1-2` [JQ1] + CC(=O)Nc1cccc(-n2c(=O)n(C3CC3)c(=O)c3c(Nc4ccc(I)cc4F)n(C)c(=O)c(C)c32)c1 [Trametinib] (partner 0.02 µM) gave a relative viability (201T; first compound 0.04 µM) of 0.72, a relative viability (201T; first compound 0.4 µM) of 0.538 and a relative viability (201T; first compound 1.265 µM) of 0.505. The relative viability (201T; first compound 4 µM) was 0.391, the relative viability (BEN; first compound 0.04 µM) was 1.05 and the relative viability (BEN; first compound 0.1265 µM) was 0.829. For the same molecule, the relative viability (BEN; first compound 0.4 µM) was 0.557, the relative viability (BEN; first compound 1.265 µM) was 0.481 and the relative viability (BEN; first compound 4 µM) was 0.41. The relative viability (CAL-12T; first compound 0.04 µM) was 0.354, the relative viability (CAL-12T; first compound 0.1265 µM) was 0.29 and the relative viability (CAL-12T; first compound 0.4 µM) was 0.207. It also gave a relative viability (CAL-12T; first compound 1.265 µM) of 0.193, a relative viability (CAL-12T; first compound 4 µM) of 0.208 and a relative viability (HCC-827; first compound 0.04 µM) of 0.562. It also gave a relative viability (HCC-827; first compound 0.1265 µM) of 0.519, a relative viability (HCC-827; first compound 1.265 µM) of 0.543 and a relative viability (HCC-827; first compound 4 µM) of 0.474. The relative viability (LCLC-103H; first compound 0.04 µM) was 0.642, the relative viability (LCLC-103H; first compound 0.1265 µM) was 0.613 and the relative viability (LCLC-103H; first compound 0.4 µM) was 0.534. It also gave a relative viability (LCLC-103H; first compound 1.265 µM) of 0.477, a relative viability (LCLC-103H; first compound 4 µM) of 0.426 and a relative viability (LCLC-97TM1; first compound 0.04 µM) of 0.187. It also gave a relative viability (LCLC-97TM1; first compound 0.1265 µM) of 0.149, a relative viability (LCLC-97TM1; first compound 0.4 µM) of 0.189 and a relative viability (LCLC-97TM1; first compound 1.265 µM) of 0.102. The relative viability (LCLC-97TM1; first compound 4 µM) was 0.102, the relative viability (LXF-289; first compound 0.04 µM) was 0.641 and the relative viability (LXF-289; first compound 0.1265 µM) was 0.698. It also gave a relative viability (LXF-289; first compound 0.4 µM) of 0.676, a relative viability (LXF-289; first compound 1.265 µM) of 0.607 and a relative viability (LXF-289; first compound 4 µM) of 0.477. For the same molecule, the relative viability (NCI-H1395; first compound 0.04 µM) was 1.03, the relative viability (NCI-H1395; first compound 0.1265 µM) was 0.991 and the relative viability (NCI-H1395; first compound 0.4 µM) was 0.912. The relative viability (NCI-H1395; first compound 1.265 µM) was 0.628, the relative viability (NCI-H1395; first compound 4 µM) was 0.578 and the relative viability (NCI-H1437; first compound 0.04 µM) was 0.443. It also gave a relative viability (NCI-H1437; first compound 0.1265 µM) of 0.519, a relative viability (NCI-H1437; first compound 0.4 µM) of 0.344 and a relative viability (NCI-H1437; first compound 1.265 µM) of 0.35. The relative viability (NCI-H1437; first compound 4 µM) was 0.26, the relative viability (NCI-H1650; first compound 0.04 µM) was 0.477 and the relative viability (NCI-H1650; first compound 0.1265 µM) was 0.425. It also gave a relative viability (NCI-H1650; first compound 0.4 µM) of 0.43, a relative viability (NCI-H1650; first compound 1.265 µM) of 0.18 and a relative viability (NCI-H1650; first compound 4 µM) of 0.145. It also gave a relative viability (NCI-H1792; first compound 0.04 µM) of 0.345, a relative viability (NCI-H1792; first compound 0.1265 µM) of 0.421 and a relative viability (NCI-H1792; first compound 0.4 µM) of 0.286. For the same molecule, the relative viability (NCI-H1792; first compound 1.265 µM) was 0.191, the relative viability (NCI-H1792; first compound 4 µM) was 0.186 and the relative viability (NCI-H1793; first compound 0.04 µM) was 0.483. For the same molecule, the relative viability (NCI-H1793; first compound 0.1265 µM) was 0.429, the relative viability (NCI-H1793; first compound 0.4 µM) was 0.595 and the relative viability (NCI-H1793; first compound 1.265 µM) was 0.481. It also gave a relative viability (NCI-H1793; first compound 4 µM) of 0.5, a relative viability (NCI-H1944; first compound 0.04 µM) of 0.409 and a relative viability (NCI-H1944; first compound 0.1265 µM) of 0.394. The relative viability (NCI-H1944; first compound 0.4 µM) was 0.305, the relative viability (NCI-H1944; first compound 1.265 µM) was 0.288 and the relative viability (NCI-H1944; first compound 4 µM) was 0.278. It also gave a relative viability (NCI-H2087; first compound 0.04 µM) of 0.192, a relative viability (NCI-H2087; first compound 0.1265 µM) of 0.179 and a relative viability (NCI-H2087; first compound 0.4 µM) of 0.18. For the same molecule, the relative viability (NCI-H2087; first compound 1.265 µM) was 0.142, the relative viability (NCI-H2087; first compound 4 µM) was 0.167 and the relative viability (NCI-H2228; first compound 0.04 µM) was 0.483. It also gave a relative viability (NCI-H2228; first compound 0.1265 µM) of 0.396, a relative viability (NCI-H2228; first compound 0.4 µM) of 0.424 and a relative viability (NCI-H2228; first compound 1.265 µM) of 0.276. For the same molecule, the relative viability (NCI-H2228; first compound 4 µM) was 0.181, the relative viability (NCI-H2405; first compound 0.04 µM) was 0.627 and the relative viability (NCI-H2405; first compound 0.4 µM) was 0.601. The relative viability (NCI-H2405; first compound 1.265 µM) was 0.422, the relative viability (NCI-H2405; first compound 4 µM) was 0.332 and the relative viability (NCI-H3122; first compound 0.04 µM) was 0.219. For the same molecule, the relative viability (NCI-H3122; first compound 0.1265 µM) was 0.179, the relative viability (NCI-H3122; first compound 0.4 µM) was 0.322 and the relative viability (NCI-H3122; first compound 1.265 µM) was 0.317. For the same molecule, the relative viability (NCI-H3122; first compound 4 µM) was 0.304, the relative viability (NCI-H322M; first compound 0.04 µM) was 0.555 and the relative viability (NCI-H322M; first compound 0.1265 µM) was 0.644. It also gave a relative viability (NCI-H322M; first compound 0.4 µM) of 0.45, a relative viability (NCI-H322M; first compound 1.265 µM) of 0.334 and a relative viability (NCI-H322M; first compound 4 µM) of 0.539. The relative viability (NCI-H647; first compound 0.04 µM) was 0.403, the relative viability (NCI-H647; first compound 0.1265 µM) was 0.326 and the relative viability (NCI-H647; first compound 0.4 µM) was 0.214. For the same molecule, the relative viability (NCI-H647; first compound 1.265 µM) was 0.126, the relative viability (NCI-H647; first compound 4 µM) was 0.0652 and the relative viability (NCI-H727; first compound 0.04 µM) was 0.403. The relative viability (NCI-H727; first compound 0.1265 µM) was 0.421, the relative viability (NCI-H727; first compound 0.4 µM) was 0.381 and the relative viability (NCI-H727; first compound 1.265 µM) was 0.365. The relative viability (NCI-H727; first compound 4 µM) was 0.401, the relative viability (RERF-LC-KJ; first compound 0.04 µM) was 0.907 and the relative viability (RERF-LC-KJ; first compound 0.1265 µM) was 0.803. For the same molecule, the relative viability (RERF-LC-KJ; first compound 0.4 µM) was 0.817, the relative viability (RERF-LC-KJ; first compound 1.265 µM) was 0.532 and the relative viability (RERF-LC-KJ; first compound 4 µM) was 0.449. It also gave a relative viability (SK-LU-1; first compound 0.04 µM) of 0.509, a relative viability (SK-LU-1; first compound 0.1265 µM) of 0.444 and a relative viability (SK-LU-1; first compound 0.4 µM) of 0.434. It also gave a relative viability (SK-LU-1; first compound 1.265 µM) of 0.359 and a relative viability (SK-LU-1; first compound 4 µM) of 0.195.
